Drawing on patent US8158628B2, “Sulfonylated 1,2,3,4-tetrahydropyrrolo[1,2-a]pyrazine compounds and their use as pharmaceuticals” (Gruenenthal GmbH, priority 2009, dated 2012), this text covers inhibition for 18 compounds.

One assay concerns the target T1, human B1R (Homo sapiens, UniProt P46663).
T1 construct: expressed in transfected cells; host or cells: CHO K1 cells (Chinese hamster ovary), stably transfected
T1 sequence (P46663 1-353): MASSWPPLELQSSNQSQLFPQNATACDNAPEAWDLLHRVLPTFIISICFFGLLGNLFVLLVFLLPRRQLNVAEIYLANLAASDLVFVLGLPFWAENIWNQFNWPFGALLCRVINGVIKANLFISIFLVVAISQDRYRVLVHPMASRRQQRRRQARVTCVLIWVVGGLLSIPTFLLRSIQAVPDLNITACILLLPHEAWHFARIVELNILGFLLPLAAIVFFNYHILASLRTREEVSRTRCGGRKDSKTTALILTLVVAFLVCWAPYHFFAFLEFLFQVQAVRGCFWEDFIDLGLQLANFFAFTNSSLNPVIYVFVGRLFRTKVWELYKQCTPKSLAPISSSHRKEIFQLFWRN
As to the kind of experiment: FLIPR Ca2+ functional assay, B1R antagonism, human B1R in CHO K1 cells. The assay is classed as cell-based. Conditions: test substance 10 μM; hB1R CHO K1 cells; agonist Lys-Des-Arg9 bradykinin at EC80; % of maximum achievable inhibition. The method in brief: (§1)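 IC50 values come from varied compound concentrations applied 10-20 min before an EC80 agonist challenge, with Des-Arg9 bradykinin for rat and Lys-Des-Arg9 bradykinin for human receptor. Ca2+ influx in Fluo-4-loaded CHO K1 transfectants was measured by FLIPR peak fluorescence. Data are % inhibition vs maximum, n=2-3, N>=2.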

Another assay addresses T2, B1R of the rat (Rattus norvegicus, UniProt P97583).
T2 construct: expressed in transfected cells; host or cells: CHO K1 cells (Chinese hamster ovary), stably transfected
T2 sequence (P97583 1-337): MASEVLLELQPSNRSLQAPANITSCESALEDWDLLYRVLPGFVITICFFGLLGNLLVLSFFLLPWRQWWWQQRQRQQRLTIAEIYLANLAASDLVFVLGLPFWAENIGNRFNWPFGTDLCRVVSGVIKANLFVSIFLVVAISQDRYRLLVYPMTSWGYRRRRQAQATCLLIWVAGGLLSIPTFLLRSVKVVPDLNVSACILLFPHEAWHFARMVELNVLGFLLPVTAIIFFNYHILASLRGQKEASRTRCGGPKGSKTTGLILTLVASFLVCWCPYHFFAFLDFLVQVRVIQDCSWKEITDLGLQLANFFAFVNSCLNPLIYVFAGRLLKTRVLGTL
As to the kind of experiment: FLIPR Ca2+ functional assay, B1R antagonism, rat B1R in CHO K1 cells. The assay is classed as cell-based. Conditions: test substance 10 μM; rB1R CHO K1 cells; agonist Des-Arg9 bradykinin at EC80; % of maximum achievable inhibition. A digest of the protocol: as §1

Take `CC(C)(C)NCc1ccc2c(c1)CCC(NC(=O)CC1c3cccn3CCN1S(=O)(=O)c1cccc(C(F)(F)F)c1)C2` (stereo not drawn) [Example 64, N-[6-[(tert-Butylamino)-methyl]-1,2,3,4-tetrahydro-naphthalen-2-yl]-2-[2-[[3-(trifluoromethyl)phenyl]sulfonyl]-1,2,3,4-tetrahydro-pyrrolo[1,2-a]pyrazin-1-yl]-acetamide]: the inhibition at 10 µM on human B1R is 99.9%; at B1R of the rat it was 102%.

Consider `O=C(CC1c2cccn2CCN1S(=O)(=O)c1cccc(C(F)(F)F)c1)NC1CCc2cc(CN3CCCc4ccccc43)ccc2C1` (stereo not drawn) [Example 69, N-[6-(1,2,3,4-Tetrahydro-quinolin-1-yl-methyl)-1,2,3,4-tetrahydro-naphthalen-2-yl]-2-[2-[[3-(trifluoromethyl)phenyl]sulfonyl]-1,2,3,4-tetrahydro-pyrrolo[1,2-a]pyrazin-1-yl]-acetamide], for which the inhibition at 10 µM at human B1R was 62.8%; at B1R of the rat it was 90.7%.

As to `CNCc1ccc2c(c1)CCCC2NC(=O)CC1c2cccn2CCN1S(=O)(=O)c1ccc(C)c(Cl)c1` (stereo not drawn) [Example 136, 2-[2-[(3-Chloro-4-methyl-phenyl)sulfonyl]-1,2,3,4-tetrahydro-pyrrolo[1,2-a]pyrazin-1-yl]-N-[6-(methylamino-methyl)-1,2,3,4-tetrahydro-naphthalen-1-yl]-acetamide], the inhibition at 10 µM at human B1R is 99.7%; at B1R of the rat, -29.2%.

With `CN(C)Cc1ccc2c(c1)CCC(NC(=O)CC1c3cccn3CCN1S(=O)(=O)c1cccc(C(F)(F)F)c1)C2` (stereo not drawn) [Example 92, N-[6-(Dimethylaminomethyl)-1,2,3,4-tetrahydro-naphthalen-2-yl]-2-[2-[[3-(trifluoromethyl)phenyl]sulfonyl]-1,2,3,4-tetrahydro-pyrrolo[1,2-a]pyrazin-1-yl]-acetamide], the inhibition at 10 µM on human B1R was 99.9%; on B1R of the rat it was 102%.

On to `COc1cc(C)c(S(=O)(=O)N2CCn3cccc3C2COCC(=O)N2CCN(C3CCN(C)CC3)CC2)c(C)c1` (stereo not drawn) [Example 2, 2-((2-(4-Methoxy-2,6-dimethylphenylsulfonyl)-1,2,3,4-tetrahydropyrrolo[1,2-a]pyrazin-1-yl)methoxy)-1-(4-(1-methylpiperidin-4-yl)piperazin-1-yl)ethanone], for which the inhibition at 10 µM on human B1R stood at 99.9%; on B1R of the rat, 98.9%.

In the case of `O=C(CC1c2cccn2CCN1S(=O)(=O)c1cccc(C(F)(F)F)c1)NC1CCc2cc(CN3CCOCC3)ccc2C1` (stereo not drawn) [Example 67, N-[6-(Morpholin-4-yl-methyl)-1,2,3,4-tetrahydro-naphthalen-2-yl]-2-[2-[[3-(trifluoromethyl)phenyl]sulfonyl]-1,2,3,4-tetrahydro-pyrrolo[1,2-a]pyrazin-1-yl]-acetamide], the inhibition at 10 µM on human B1R stood at 99.7%; at B1R of the rat it was 101%.

For `Cc1ccc(S(=O)(=O)N2CCn3cccc3C2CC(=O)NC2CCCc3cc(CN4CCN(C)CC4)ccc32)cc1Cl` (stereo not drawn) [Example 55, 2-[2-[(3-Chloro-4-methyl-phenyl)sulfonyl]-1,2,3,4-tetrahydro-pyrrolo[1,2-a]pyrazin-1-yl]-N-[6-[(4-methyl-piperazin-1-yl)-methyl]-1,2,3,4-tetrahydro-naphthalen-1-yl]-acetamide], the inhibition at 10 µM came to 99.8% on human B1R and 99.4% on B1R of the rat.

For `O=C(CC1c2cccn2CCN1S(=O)(=O)c1cccc(C(F)(F)F)c1)NC1CCCc2cc(CNCc3ccccc3)ccc21` (stereo not drawn) [Example 112, N-[6-[(Benzylamino)-methyl]-1,2,3,4-tetrahydro-naphthalen-1-yl]-2-[2-[[3-(trifluoromethyl)phenyl]sulfonyl]-1,2,3,4-tetrahydro-pyrrolo[1,2-a]pyrazin-1-yl]-acetamide], the results for the inhibition at 10 µM at human B1R and at B1R of the rat were 99.8% and 102%, respectively.

With `CCC(C)NCc1ccc2c(c1)CCC(NC(=O)CC1c3cccn3CCN1S(=O)(=O)c1ccc(C)c(Cl)c1)C2` (stereo not drawn) [Example 63, 2-[2-[(3-Chloro-4-methyl-phenyl)sulfonyl]-1,2,3,4-tetrahydro-pyrrolo[1,2-a]pyrazin-1-yl]-N-[6-[(1-methyl-propylamino)-methyl]-1,2,3,4-tetrahydro-naphthalen-2-yl]-acetamide], the values for the inhibition at 10 µM on human B1R and at B1R of the rat were 99.7% and 91.1%, respectively.

Regarding `COc1ccc2cc(S(=O)(=O)N3CCn4cccc4C3CC(=O)N[C@@H]3CCCc4cc(CN5CCCCC5)ccc43)ccc2c1` (stereo partly drawn) [Example 9, 2-(2-(6-Methoxynaphthalen-2-ylsulfonyl)-1,2,3,4-tetrahydropyrrolo[1,2-a]pyrazin-1-yl)-N—((R)-6-(piperidin-1-ylmethyl)-1,2,3,4-tetrahydronaphthalen-1-yl)acetamide], the inhibition at 10 µM on human B1R is 99.5%; on B1R of the rat, 103%.

Regarding `COc1ccc2cc(S(=O)(=O)N3CCn4cccc4C3CC(=O)N(C)C3CCc4cc(CN5CCCCC5)ccc4C3)ccc2c1` (stereo not drawn) [Example 43, 2-[2-[(6-Methoxy-naphthalen-2-yl)sulfonyl]-1,2,3,4-tetrahydro-pyrrolo[1,2-a]pyrazin-1-yl]-N-methyl-N-[6-(piperidin-1-yl-methyl)-1,2,3,4-tetrahydro-naphthalen-2-yl]-acetamide], the inhibition at 10 µM is 99.5% at human B1R and 103% on B1R of the rat.

As for `O=C(COCC1c2cccn2CCN1S(=O)(=O)c1ccccc1C(F)(F)F)N1CCC2(CC1)CCN(c1ccncc1)CC2` (stereo not drawn) [Example 11, 1-(9-(Pyridin-4-yl)-3,9-diazaspiro[5.5]undecan-3-yl)-2-((2-(2-(trifluoromethyl)phenylsulfonyl)-1,2,3,4-tetrahydropyrrolo[1,2-a]pyrazin-1-yl)methoxy)ethanone], the inhibition at 10 µM at human B1R was determined as 99.9%; on B1R of the rat, 98.1%.

Take `COc1ccc2cc(S(=O)(=O)N3CCn4cccc4C3CC(=O)NC3CCc4cc(CN(C)C)ccc4C3)ccc2c1` (stereo not drawn) [Example 96, N-[6-(Dimethylaminomethyl)-1,2,3,4-tetrahydro-naphthalen-2-yl]-2-[2-[(6-methoxy-naphthalen-2-yl)sulfonyl]-1,2,3,4-tetrahydro-pyrrolo[1,2-a]pyrazin-1-yl]-acetamide]: the inhibition at 10 µM on human B1R is 99.9%; on B1R of the rat, 102%.

Take `COc1ccc2cc(S(=O)(=O)N3CCn4cccc4C3CC(=O)NC3CCc4cc(CN5C6CCCC5CC6)ccc4C3)ccc2c1` (stereo not drawn) [Example 103, N-[6-(8-Azabicyclo[3.2.1]octan-8-yl-methyl)-1,2,3,4-tetrahydro-naphthalen-2-yl]-2-[2-[(6-methoxy-naphthalen-2-yl)sulfonyl]-1,2,3,4-tetrahydro-pyrrolo[1,2-a]pyrazin-1-yl]-acetamide]: the inhibition at 10 µM on human B1R was 100%; at B1R of the rat, 102%.

Take `Cc1ccc(S(=O)(=O)N2CCn3cccc3C2CC(=O)NC2CCc3cc(CN(C)C(C)(C)C)ccc3C2)cc1Cl` (stereo not drawn) [Example 75, N-[6-[(tert-Butyl-methyl-amino)-methyl]-1,2,3,4-tetrahydro-naphthalen-2-yl]-2-[2-[(3-chloro-4-methyl-phenyl)sulfonyl]-1,2,3,4-tetrahydro-pyrrolo[1,2-a]pyrazin-1-yl]-acetamide]: the inhibition at 10 µM is 99.9% at human B1R and 102% at B1R of the rat.

For `O=C(CC1c2cccn2CCN1S(=O)(=O)c1ccc(Cl)c(Cl)c1)NC1CCc2cc(CN3CCCCC3)ccc2C1` (stereo not drawn) [Example 26, 2-(2-(3,4-dichlorophenylsulfonyl)-1,2,3,4-tetrahydropyrrolo[1,2-a]pyrazin-1-yl)-N-(6-(piperidin-1-ylmethyl)-1,2,3,4-tetrahydronaphthalen-2-yl)acetamide], the inhibition at 10 µM at human B1R turned out to be 98.9%; on B1R of the rat, 102%.

Consider `CCC(C)NCc1ccc2c(c1)CCCC2NC(=O)CC1c2cccn2CCN1S(=O)(=O)c1ccc2cc(OC)ccc2c1` (stereo not drawn) [Example 125, 2-[2-[(6-Methoxy-naphthalen-2-yl)sulfonyl]-1,2,3,4-tetrahydro-pyrrolo[1,2-a]pyrazin-1-yl]-N-[6-[(1-methyl-propylamino)-methyl]-1,2,3,4-tetrahydro-naphthalen-1-yl]-acetamide], for which the inhibition at 10 µM at human B1R stood at 99.6%; on B1R of the rat, 99.1%.

Consider `CNCc1ccc2c(c1)CCCC2NC(=O)CC1c2cccn2CCN1S(=O)(=O)c1cccc(C(F)(F)F)c1` (stereo not drawn) [Example 135, N-[6-(Methylamino-methyl)-1,2,3,4-tetrahydro-naphthalen-1-yl]-2-[2-[[3-(trifluoromethyl)phenyl]sulfonyl]-1,2,3,4-tetrahydro-pyrrolo[1,2-a]pyrazin-1-yl]-acetamide], for which the results for the inhibition at 10 µM at human B1R and at B1R of the rat were 99.6% and 104%, respectively.
